According to PubChem BioAssay (NCI):
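Five compound concentrations were applied to cells in 96-well plates for 48 hours; endpoints were derived by simple linear interpolation of the resulting dose-response curve. Here, GI50 denotes the concentration required for 50% inhibition of growth. TGI: total growth inhibition.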

Experiments:
Experiment in all cases: DTP human tumour cell line panel, 48 h
SF-295 CNS = test system: SF-295 CNS
KM12 colon = test system: KM12 colon
786-0 renal = test system: 786-0 renal
HCT-116 colon = test system: HCT-116 colon
HCC-2998 colon = test system: HCC-2998 colon
SNB-19 CNS = test system: SNB-19 CNS
HOP-62 NSCLC = test system: HOP-62 NSCLC
HL-60(TB) leukemia = test system: HL-60(TB) leukemia
DU-145 prostate = test system: DU-145 prostate
SF-268 CNS = test system: SF-268 CNS
A498 renal = test system: A498 renal
CAKI-1 renal = test system: CAKI-1 renal
SK-MEL-5 melanoma = test system: SK-MEL-5 melanoma
OVCAR-4 ovarian = test system: OVCAR-4 ovarian
NCI/ADR-RES ovarian = test system: NCI/ADR-RES ovarian
HOP-92 NSCLC = test system: HOP-92 NSCLC
NCI-H226 lung = test system: NCI-H226 lung
SK-OV-3 ovarian = test system: SK-OV-3 ovarian
RPMI-8226 leukemia = test system: RPMI-8226 leukemia
HCT-15 colon = test system: HCT-15 colon
M14 melanoma = test system: M14 melanoma
MALME-3M melanoma = test system: MALME-3M melanoma
ACHN renal = test system: ACHN renal
OVCAR-8 ovarian = test system: OVCAR-8 ovarian
MDA-MB-435 = test system: MDA-MB-435
T-47D breast = test system: T-47D breast
OVCAR-5 ovarian = test system: OVCAR-5 ovarian
HS 578T breast = test system: HS 578T breast
MDA-MB-468 breast = test system: MDA-MB-468 breast
SF-539 CNS = test system: SF-539 CNS
SN12C renal = test system: SN12C renal
OVCAR-3 ovarian = test system: OVCAR-3 ovarian
SK-MEL-2 melanoma = test system: SK-MEL-2 melanoma
RXF 393 renal = test system: RXF 393 renal
UACC-62 melanoma = test system: UACC-62 melanoma
BT-549 breast = test system: BT-549 breast
PC-3 prostate = test system: PC-3 prostate
SK-MEL-28 melanoma = test system: SK-MEL-28 melanoma
NCI-H23 lung = test system: NCI-H23 lung
UO-31 renal = test system: UO-31 renal
LOX IMVI melanoma = test system: LOX IMVI melanoma
MCF7 breast = test system: MCF7 breast
MDA-MB-231 breast = test system: MDA-MB-231 breast
EKVX NSCLC = test system: EKVX NSCLC
TK-10 renal = test system: TK-10 renal
IGROV1 ovarian = test system: IGROV1 ovarian
A549 NSCLC = test system: A549 NSCLC

Which GI50 (SF-295 CNS) does the source give for `COc1ccc2c(c1)c(-c1cc3nc(-c4cn(C)c5ncccc45)cc(N)n3n1)cn2C` here?
Its GI50 is 1.81 µM.

And the TGI (SF-295 CNS)?
Its TGI is 3.49 µM.

And the GI50 (KM12 colon)?
Its GI50 is 1.97 µM.

And the TGI (KM12 colon)?
Its TGI is 4.32 µM.

What about the GI50 (786-0 renal) of the same molecule?
The GI50 was 1.74 µM.

What about the TGI (786-0 renal) of the same molecule?
The TGI was 3.2 µM.

And the GI50 (HCT-116 colon)?
The GI50 was 1.67 µM.

And the TGI (HCT-116 colon)?
The TGI was 3.13 µM.

What about the GI50 (HCC-2998 colon) of the same molecule?
Its GI50 is 1.81 µM.

And the TGI (HCC-2998 colon)?
The TGI was 3.56 µM.

What about the GI50 (SNB-19 CNS) of the same molecule?
The GI50 was 3.98 µM.

And the TGI (SNB-19 CNS)?
The TGI was 16.8 µM.

What about the GI50 (HOP-62 NSCLC) of the same molecule?
Its GI50 is 3.11 µM.

And the TGI (HOP-62 NSCLC)?
The TGI was 13.3 µM.

And the GI50 (HL-60(TB) leukemia)?
The GI50 was 2.17 µM.

And the TGI (HL-60(TB) leukemia)?
The TGI was 5.1 µM.

What about the GI50 (DU-145 prostate) of the same molecule?
The GI50 was 2.88 µM.

What about the TGI (DU-145 prostate) of the same molecule?
The TGI was 8.26 µM.

What about the GI50 (SF-268 CNS) of the same molecule?
Its GI50 is 2.64 µM.

What about the TGI (SF-268 CNS) of the same molecule?
Its TGI is 8.65 µM.

What about the GI50 (A498 renal) of the same molecule?
Its GI50 is 14.8 µM.

What about the TGI (A498 renal) of the same molecule?
Its TGI is 34.8 µM.

And the GI50 (CAKI-1 renal)?
The GI50 was 2.19 µM.

And the TGI (CAKI-1 renal)?
Its TGI is 6.46 µM.

And the GI50 (SK-MEL-5 melanoma)?
The GI50 was 1.69 µM.

And the TGI (SK-MEL-5 melanoma)?
The TGI was 3.24 µM.

What about the GI50 (OVCAR-4 ovarian) of the same molecule?
The GI50 was 2.13 µM.

And the TGI (OVCAR-4 ovarian)?
The TGI was 5 µM.

And the GI50 (NCI/ADR-RES ovarian)?
Its GI50 is 3.62 µM.

What about the TGI (NCI/ADR-RES ovarian) of the same molecule?
The TGI was 23.5 µM.

What about the GI50 (HOP-92 NSCLC) of the same molecule?
Its GI50 is 1.61 µM.

And the TGI (HOP-92 NSCLC)?
Its TGI is 3.82 µM.

And the GI50 (NCI-H226 lung)?
Its GI50 is 2.36 µM.

What about the TGI (NCI-H226 lung) of the same molecule?
The TGI was 6.92 µM.

And the GI50 (SK-OV-3 ovarian)?
The GI50 was 4.65 µM.

And the TGI (SK-OV-3 ovarian)?
Its TGI is 33 µM.

What about the GI50 (RPMI-8226 leukemia) of the same molecule?
Its GI50 is 2.12 µM.

And the TGI (RPMI-8226 leukemia)?
The TGI was 5.44 µM.

What about the GI50 (HCT-15 colon) of the same molecule?
Its GI50 is 1.76 µM.

What about the TGI (HCT-15 colon) of the same molecule?
Its TGI is 3.6 µM.

And the GI50 (M14 melanoma)?
The GI50 was 1.8 µM.

What about the TGI (M14 melanoma) of the same molecule?
Its TGI is 3.44 µM.

And the GI50 (MALME-3M melanoma)?
Its GI50 is 1.74 µM.

What about the TGI (MALME-3M melanoma) of the same molecule?
Its TGI is 3.17 µM.

What about the GI50 (ACHN renal) of the same molecule?
Its GI50 is 2.09 µM.

And the TGI (ACHN renal)?
Its TGI is 4.24 µM.

And the GI50 (OVCAR-8 ovarian)?
Its GI50 is 3.17 µM.

And the TGI (OVCAR-8 ovarian)?
Its TGI is greater than 100 µM.

And the GI50 (MDA-MB-435)?
The GI50 was 1.72 µM.

What about the TGI (MDA-MB-435) of the same molecule?
Its TGI is 3.35 µM.

And the GI50 (T-47D breast)?
The GI50 was 3.24 µM.

And the TGI (T-47D breast)?
The TGI was 16.3 µM.

And the GI50 (OVCAR-5 ovarian)?
Its GI50 is 4.76 µM.

What about the TGI (OVCAR-5 ovarian) of the same molecule?
Its TGI is 18 µM.

And the GI50 (HS 578T breast)?
The GI50 was 2.09 µM.

And the TGI (HS 578T breast)?
The TGI was 6.27 µM.

What about the GI50 (MDA-MB-468 breast) of the same molecule?
The GI50 was 1.82 µM.

What about the TGI (MDA-MB-468 breast) of the same molecule?
The TGI was 3.52 µM.

What about the GI50 (SF-539 CNS) of the same molecule?
The GI50 was 1.65 µM.

What about the TGI (SF-539 CNS) of the same molecule?
Its TGI is 3.06 µM.

And the GI50 (SN12C renal)?
The GI50 was 5.18 µM.

And the TGI (SN12C renal)?
The TGI was 18.2 µM.

And the GI50 (OVCAR-3 ovarian)?
Its GI50 is 1.98 µM.

What about the TGI (OVCAR-3 ovarian) of the same molecule?
Its TGI is 4.14 µM.

What about the GI50 (SK-MEL-2 melanoma) of the same molecule?
Its GI50 is 2.83 µM.

And the TGI (SK-MEL-2 melanoma)?
Its TGI is 8.59 µM.

What about the GI50 (RXF 393 renal) of the same molecule?
The GI50 was 1.66 µM.

What about the TGI (RXF 393 renal) of the same molecule?
The TGI was 3.21 µM.

And the GI50 (UACC-62 melanoma)?
The GI50 was 1.61 µM.

What about the TGI (UACC-62 melanoma) of the same molecule?
The TGI was 3.02 µM.

And the GI50 (BT-549 breast)?
The GI50 was 1.83 µM.

And the TGI (BT-549 breast)?
The TGI was 3.77 µM.

And the GI50 (PC-3 prostate)?
Its GI50 is 2.75 µM.

What about the TGI (PC-3 prostate) of the same molecule?
The TGI was greater than 100 µM.

What about the GI50 (SK-MEL-28 melanoma) of the same molecule?
The GI50 was 1.64 µM.

What about the TGI (SK-MEL-28 melanoma) of the same molecule?
The TGI was 3.02 µM.

What about the GI50 (NCI-H23 lung) of the same molecule?
The GI50 was 3.92 µM.

What about the TGI (NCI-H23 lung) of the same molecule?
Its TGI is 17.9 µM.

What about the GI50 (UO-31 renal) of the same molecule?
The GI50 was 1.85 µM.

What about the TGI (UO-31 renal) of the same molecule?
The TGI was 4.57 µM.

What about the GI50 (LOX IMVI melanoma) of the same molecule?
Its GI50 is 1.79 µM.

What about the TGI (LOX IMVI melanoma) of the same molecule?
Its TGI is 3.31 µM.

And the GI50 (MCF7 breast)?
Its GI50 is 2.27 µM.

And the TGI (MCF7 breast)?
Its TGI is 5.91 µM.

What about the GI50 (MDA-MB-231 breast) of the same molecule?
The GI50 was 1.84 µM.

What about the TGI (MDA-MB-231 breast) of the same molecule?
The TGI was 3.89 µM.

What about the GI50 (EKVX NSCLC) of the same molecule?
The GI50 was 3.05 µM.

And the TGI (EKVX NSCLC)?
The TGI was 12.5 µM.

And the GI50 (TK-10 renal)?
Its GI50 is 4.25 µM.

And the TGI (TK-10 renal)?
Its TGI is 14.5 µM.

What about the GI50 (IGROV1 ovarian) of the same molecule?
Its GI50 is 2.06 µM.

What about the TGI (IGROV1 ovarian) of the same molecule?
Its TGI is 4.64 µM.

And the GI50 (A549 NSCLC)?
Its GI50 is 3.37 µM.

And the TGI (A549 NSCLC)?
The TGI was 13.8 µM.
